Read-outs that look alike come from different tables or passages of the source.

Among the data in patent US8067445B2, “N,N-disubstituted aminoalkylbiphenyl antagonists of prostaglandin D2 receptors” (Panmira Pharmaceuticals, LLC, priority 2008, dated 2011) are IC50 values, retold here.

The target of one assay is T1, human DP2 receptor (Homo sapiens, UniProt Q9Y5Y4).
T1 construct: expressed in transfected cells
T1 sequence (Q9Y5Y4 1-395): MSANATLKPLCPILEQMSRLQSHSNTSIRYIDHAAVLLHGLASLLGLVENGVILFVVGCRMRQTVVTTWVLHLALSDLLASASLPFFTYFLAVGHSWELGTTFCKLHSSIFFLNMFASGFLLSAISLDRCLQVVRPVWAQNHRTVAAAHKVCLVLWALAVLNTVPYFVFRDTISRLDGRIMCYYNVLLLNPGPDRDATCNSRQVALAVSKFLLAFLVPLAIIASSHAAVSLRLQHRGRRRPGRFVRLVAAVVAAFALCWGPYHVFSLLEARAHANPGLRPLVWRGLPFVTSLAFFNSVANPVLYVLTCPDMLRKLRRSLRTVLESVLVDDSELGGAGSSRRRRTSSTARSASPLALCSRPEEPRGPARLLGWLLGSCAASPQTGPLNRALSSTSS
Briefly: DP2/CRTH2 radioligand binding assay ([3H]PGD2). The settings on record: [3H]PGD2 binding, membranes of HEK293 cells expressing human DP2; read-out: hDP2. The method in brief:
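Membranes from HEK293 cells stably expressing recombinant human DP2 incubated 60 min at room temperature with 1 nM [3H]PGD2 and compound in pH 7.4 Hepes/MnCl2/EDTA buffer, ± 0.2% human serum albumin. Bound radioactivity measured after filtration; non-specific binding defined with 10 μM PGD2. IC50 from titration curves.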

The target in a further assay is T2, human DP1 receptor (Homo sapiens, UniProt Q13258).
T2 construct: tissue Biological Specialty Corporation; host or cells: human platelet membranes
T2 sequence (Q13258 1-359): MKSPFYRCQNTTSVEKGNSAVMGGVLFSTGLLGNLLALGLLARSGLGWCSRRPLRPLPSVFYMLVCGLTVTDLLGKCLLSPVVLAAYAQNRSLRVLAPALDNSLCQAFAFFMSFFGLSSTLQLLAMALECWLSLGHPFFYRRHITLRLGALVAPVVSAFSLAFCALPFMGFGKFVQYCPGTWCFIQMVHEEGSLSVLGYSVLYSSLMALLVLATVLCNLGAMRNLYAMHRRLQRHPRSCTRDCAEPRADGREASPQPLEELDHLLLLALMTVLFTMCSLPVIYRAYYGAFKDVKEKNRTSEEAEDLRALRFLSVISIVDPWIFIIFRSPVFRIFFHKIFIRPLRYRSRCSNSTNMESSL
Briefly: DP1 radioligand binding assay ([3H]BWA868C, platelet membranes). As to the method:
The ability of a compound to bind to the human DPI receptor was evaluated via a radioligand membrane binding assay using the DP1 selective synthetic ligand [^311]BWA868C. Packed human platelets (Biological Specialty Corporation), were resuspended in 6 volumes of Hepes/HBSS buffer (10 mM Hepes, 1 mM DTT in Hanks Balanced Salt Solution (HBSS)), lysed and centrifuged at 75,000×g to pellet the membranes. Membranes were resuspended in Hepes/HBSS buffer to approximately 12 mg protein/ml. Membranes (20 μg protein/well) are incubated in 96-well plates with 2 nM [^3H]BWA868C and test compound in Assay Buffer (50 mM Hepes, 10 mM MnCl2, 1 mM EDTA, plus or minus 0.2% human serum albumin, pH 7.4) for 60 minutes at room temperature. The reactions are terminated by rapid filtration through Whatman GF/C glass fibre filter plates. The filter plates were pre-soaked in 0.33% polyethylenimine for 30 minutes at room temperature then washed in Wash Buffer (50 mM Hepes, 0.5 M NaCl pH 7.4) prior to harvesting. After harvesting, the filter plates are washed 3 times with 1 ml cold Wash Buffer then dried. Scintillant is then added to the plates and the radioactivity retained on the filters is determined on a Packard TopCount (Perkin Elmer). Specific binding is determined as total radioactive binding minus non-specific binding in the presence of 10 μM BW A868C. IC50s were determined using GraphPad prism analysis of drug titration curves.

Where [1] appears, read: [3H]BWA868C binding, human platelet membranes, read-out: hDP1.

Turning to `CCN(Cc1cc(C(F)(F)F)ccc1-c1ccc(C(F)(F)F)c(CC(=O)O)c1)C(=O)OCc1ccccc1` [Compound 1-124, {2′-[(Benzyloxycarbonyl-ethyl-amino)-methyl]-4,4′-bis-trifluoromethyl-biphenyl-3-yl}-acetic acid], the IC50 at human DP2 receptor and at human DP1 receptor (setting [1]) was 300 to 1000 nM each time. Take `CCN(Cc1cc(C(F)(F)F)ccc1-c1cc(CC(C)(C)O)ccc1OC)C(C)=O` [Compound 2-2, N-Ethyl-N-[5′-(2-hydroxy-2-methyl-propyl)-2′-methoxy-4-trifluoromethyl-biphenyl-2-ylmethyl]-acetamide]: the IC50 on human DP2 receptor and on human DP1 receptor (setting [1]) was 1000 to 30000 nM each time.

In the case of `CCN(Cc1cc(C(F)(F)F)ccc1-c1cc(CC(N)=O)ccc1OC)C(=O)C1CC1` [Compound 2-8, Cyclopropanecarboxylic acid (5′-carbamoylmethyl-2′-methoxy-4-trifluoromethyl-biphenyl-2-ylmethyl)-ethyl-amide], the IC50 at human DP2 receptor and on human DP1 receptor (setting [1]) was 1000 to 30000 nM in each case. On to `CCN(Cc1cc(C(F)(F)F)ccc1-c1cc(C(F)(F)C(=O)O)ccc1OC)C(C)=O` [Compound 1-91, {2′-[(Acetyl-ethyl-amino)-methyl]-6-methoxy-4′-trifluoromethyl-biphenyl-3-yl}-difluoro-acetic acid], for which the IC50 on human DP2 receptor and at human DP1 receptor (setting [1]) was 1000 to 30000 nM each time. As for `CCN(Cc1cc(C(F)(F)F)ccc1-c1cc(Cc2nn[nH]n2)ccc1OC)C(=O)OCc1ccccc1` [Compound 2-5, Ethyl-[2′-methoxy-5′-(2H-tetrazol-5-ylmethyl)-4-trifluoromethyl-biphenyl-2-ylmethyl]-carbamic acid benzyl ester], the IC50 at human DP2 receptor and on human DP1 receptor (setting [1]) was < 300 nM throughout. As for `CCN(Cc1cc(C(F)(F)F)ccc1-c1cc(Cl)cc(CC(=O)O)c1)C(=O)C1CC1` [Compound 1-135, {5-Chloro-2′-[(cyclopropanecarbonyl-ethyl-amino)-methyl]-4′-trifluoromethyl-biphenyl-3-yl}-acetic acid], the figures for the IC50 at human DP2 receptor and at human DP1 receptor (setting [1]) were < 300 nM and 1000 to 30000 nM, respectively. Take `CCN(Cc1ccc(C)cc1-c1cc(CC(=O)O)ccc1OC)C(=O)OCc1ccc(F)cc1` [Compound 1-169, (2′-{[Ethyl-(4-fluoro-benzyloxycarbonyl)-amino]-methyl}-6-methoxy-5′-methyl-biphenyl-3-yl)-acetic acid]: the IC50 at human DP2 receptor is < 300 nM; on human DP1 receptor (setting [1]), 1000 to 30000 nM.

For `CCN(Cc1ccc(C)cc1-c1cc(CC(=O)O)ccc1OC)C(=O)OCc1ccc(Cl)cc1` [Compound 1-175, (2′-{[(4-Chloro-benzyloxycarbonyl)-ethyl-amino]-methyl}-6-methoxy-5′-methyl-biphenyl-3-yl)-acetic acid], the IC50 at human DP2 receptor was < 300 nM; on human DP1 receptor (setting [1]), 300 to 1000 nM.

As to `COc1ccc(CC(=O)O)cc1-c1ccc(C(=O)O)cc1CN(CC(F)(F)F)C(C)=O` [Compound 1-37, 2-{[Acetyl-(2,2,2-trifluoro-ethyl)-amino]-methyl}-5′-carboxymethyl-2′-methoxy-biphenyl-4-carboxylic acid], the IC50 on human DP2 receptor and on human DP1 receptor (setting [1]) was 1000 to 30000 nM in each case. As for `CCN(Cc1cc(C(F)(F)F)ccc1-c1cc(CC(=O)O)ccc1OC)C(=O)NC1CC1` [Compound 1-182], the IC50 on human DP2 receptor is < 300 nM; on human DP1 receptor (setting [1]) it was 1000 to 30000 nM.

On to `CCN(Cc1cc(C(F)(F)F)ccc1-c1cc(CC(=O)O)ccc1OC)C(=O)Cn1ccnc1C` [Compound 1-149, [2′-({Ethyl-[2-(2-methyl-imidazol-1-yl)-acetyl]-amino}-methyl)-6-methoxy-4′-trifluoromethyl-biphenyl-3-yl]-acetic acid], for which the IC50 on human DP2 receptor is < 300 nM; at human DP1 receptor (setting [1]) it was 1000 to 30000 nM. The corresponding values for `CCN(Cc1cc(NC(=O)c2ccc(Cl)cc2)ccc1-c1cc(CC(=O)O)ccc1OC)C(=O)OCc1ccccc1` [Compound 1-154, [2′-[(Benzyloxycarbonyl-ethyl-amino)-methyl]-4′-(4-chloro-benzoylamino)-6-methoxy-biphenyl-3-yl]-acetic acid] are < 300 nM and 1000 to 30000 nM. The corresponding values for `CCN(Cc1cc(C(F)(F)F)ccc1-c1cc(Cl)cc(CC(=O)O)c1)C(C)=O` [Compound 1-137, {2′-[(Acetyl-ethyl-amino)-methyl]-5-chloro-4′-trifluoromethyl-biphenyl-3-yl}-acetic acid] are < 300 nM and 1000 to 30000 nM. For `CCN(Cc1ccc(C(F)(F)F)cc1-c1cc(CC(=O)O)ccc1OC)C(=O)NCc1ccccc1` [Compound 1-172, [2′-(3-Benzyl-1-ethyl-ureidomethyl)-6-methoxy-5′-trifluoromethyl-biphenyl-3-yl]-acetic acid], the IC50 at human DP2 receptor is < 300 nM; on human DP1 receptor (setting [1]) it was 1000 to 30000 nM. The corresponding values for `CCN(Cc1cc(C(F)(F)F)ccc1-c1cc(CC(=O)O)ccc1OC)C(=O)CN1CCCC1` [Compound 1-151, (2′-{[Ethyl-(2-pyrrolidin-1-yl-acetyl)-amino]-methyl}-6-methoxy-4′-trifluoromethyl-biphenyl-3-yl)-acetic acid] are 1000 to 30000 nM and 1000 to 30000 nM.

Take `CCN(C(C)=O)C(C)c1cc(C(F)(F)F)ccc1-c1cc(CC(=O)O)ccc1OC` (centres unmarked) [Compound 1-22, {2′-[1-(Acetyl-ethyl-amino)-ethyl]-6-methoxy-4′-trifluoromethyl-biphenyl-3-yl}-acetic acid]: the IC50 on human DP2 receptor and at human DP1 receptor (setting [1]) was 1000 to 30000 nM throughout. Turning to `O=C(O)Cc1ccc(F)c(-c2ccc(C(F)(F)F)cc2CN(CC(F)(F)F)C(=O)OCc2ccccc2)c1` [Compound 1-49, (2′-{[Benzyloxycarbonyl-(2,2,2-trifluoro-ethyl)-amino]-methyl}-6-fluoro-4′-trifluoromethyl-biphenyl-3-yl)-acetic acid], the IC50 on human DP2 receptor and at human DP1 receptor (setting [1]) was 1000 to 30000 nM in each case.

For the compound `COc1ccc(CC(=O)O)cc1-c1ccc(C(F)(F)F)cc1CN(CCc1ccccc1)S(C)(=O)=O` [Compound 1-101, {2′-[(Methanesulfonyl-phenethyl-amino)-methyl]-6-methoxy-4′-trifluoromethyl-biphenyl-3-yl}-acetic acid], the IC50 on human DP2 receptor and on human DP1 receptor (setting [1]) was 1000 to 30000 nM throughout. In the case of `CCN(Cc1cc(NS(C)(=O)=O)ccc1-c1cc(CC(=O)O)ccc1OC)C(=O)OCc1ccccc1` [Compound 1-155, {2′-[(Benzyloxycarbonyl-ethyl-amino)-methyl]-4′-methanesulfonylamino-6-methoxy-biphenyl-3-yl}-acetic acid], the IC50 at human DP1 receptor (setting [1]) is 1000 to 30000 nM. `CCN(Cc1cc(F)ccc1-c1cc(CC(=O)O)ccc1OC)C(=O)NCc1ccc(Cl)cc1` [Compound 1-185, {2′-[3-(4-Chloro-benzyl)-1-ethyl-ureidomethyl]-4′-fluoro-6-methoxy-biphenyl-3-yl}-acetic acid]: the IC50 on human DP1 receptor (setting [1]) fell in the range of 1000 to 30000 nM. With `CCN(Cc1cc(C(F)(F)F)ccc1-c1cc(CC(=O)O)ccc1OC)C(=O)COCc1ccccc1` [Compound 1-92, (2′-{[(2-Benzyloxy-acetyl)-ethyl-amino]-methyl}-6-methoxy-4′-trifluoromethyl-biphenyl-3-yl)-acetic acid], on human DP1 receptor (setting [1]), the IC50 was in the range of 1000 to 30000 nM. Turning to `CCN(Cc1cc(C(F)(F)F)ccc1-c1cc(CC(=O)O)ccc1OC)C(=O)OC(C)c1ccc(Cl)cc1` (centres unmarked) [Compound 1-44, [2′-({[1-(4-Chloro-phenyl)-ethoxycarbonyl]-ethyl-amino}-methyl)-6-methoxy-4′-trifluoromethyl-biphenyl-3-yl]-acetic acid], the IC50 at human DP1 receptor (setting [1]) lay within 1000 to 30000 nM. Compound `COc1ccc(CC(=O)O)cc1-c1ccc(C(F)(F)F)cc1CN(C(=O)OCc1ccccc1)C1CC1` [Compound 1-36, {2′-[(Benzyloxycarbonyl-cyclopropyl-amino)-methyl]-6-methoxy-4′-trifluoromethyl-biphenyl-3-yl}-acetic acid] came in with an IC50 at human DP1 receptor of 1000 to 30000 nM.
